This passage reports IC50 results from US20230010886A1 (SUZHOU PUHE BIOPHARMA CO., LTD., priority 2019, published 2023).

The assay concerns the target T1, Full length SHP2 enzyme (Homo sapiens, UniProt Q06124).
T1 construct: Full length SHP2 enzyme (diluted to 0.1 nM in reaction buffer)
T1 sequence (Q06124 1-593): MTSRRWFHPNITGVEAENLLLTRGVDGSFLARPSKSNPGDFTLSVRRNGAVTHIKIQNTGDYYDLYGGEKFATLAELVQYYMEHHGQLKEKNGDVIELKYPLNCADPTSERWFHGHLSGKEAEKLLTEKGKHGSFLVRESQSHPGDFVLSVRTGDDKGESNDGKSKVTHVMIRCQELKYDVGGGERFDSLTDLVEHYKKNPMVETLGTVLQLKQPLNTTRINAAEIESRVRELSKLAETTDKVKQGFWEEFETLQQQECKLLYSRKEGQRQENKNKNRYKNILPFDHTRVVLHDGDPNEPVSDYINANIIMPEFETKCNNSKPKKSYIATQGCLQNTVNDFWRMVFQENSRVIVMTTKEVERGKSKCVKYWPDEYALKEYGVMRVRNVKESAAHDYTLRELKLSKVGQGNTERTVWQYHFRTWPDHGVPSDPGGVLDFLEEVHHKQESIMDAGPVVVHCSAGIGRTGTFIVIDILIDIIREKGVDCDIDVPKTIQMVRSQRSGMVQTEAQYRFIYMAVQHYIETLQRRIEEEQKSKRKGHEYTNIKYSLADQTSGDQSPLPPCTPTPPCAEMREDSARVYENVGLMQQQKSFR
The assay is described as follows: SHP2 phosphatase assay. The class given is biochemical. Particulars: 1 μM IRS-1 peptide, DiFMUP substrate. The protocol: IC50 values were determined at room temperature in 384-well black polystyrene plate, using a final reaction volume of 15 μL and the following assay buffer conditions: 60 mM Hepes (pH=7.2), 75 mM NaCl, 75 mM KCl, and 1 mM EDTA, 0.05% P-20, 5 mM dithiothreitol (DTT). Full length SHP2 enzyme (diluted to 0.1 nM in reaction buffer) were co-incubated with 1 μM IRS-1 peptide and 0.01 nM to 10 μM compounds of the disclosure for 60 min. The surrogate substrate DiFMUP (5 μL, 100 μM) was added, and incubated at rt for 60 min. The reaction was then quenched by the addition of 5 μL of a 40 μM solution of bpV(Phen). The fluorescence signal was monitored using a microplate reader (Envision, Perkin-Elmer) using excitation and emission wavelengths of 360 nm and 450 nm, respectively. The inhibitor dose-response curves were analyzed using normalized IC50 regression curve fitting with control-based normalization.
Consider `COc1cccc(Sc2cnc(N3CCC4(CC3)CO[C@@H](C)[C@H]4N)c(=O)[nH]2)c1Cl` [Example 79, 3-((3S,4S)-4-amino-3-methyl-2-oxa-8-azaspiro[4.5]decan-8-yl)-6-((2-chloro-3-methoxyphenyl)thio)pyrazin-2 (1H)-one], for which the IC50 (usually the concentration at which inhibition is half-maximal) was no more than 0.05 µM.

`CC1(CN)CCN(c2ncc(Sc3cccc(NC(=O)c4c(O)nc5cnccn5c4=O)c3Cl)[nH]c2=O)CC1` [Example 30, N-(3-((5-(4-(aminomethyl)-4-methylpiperidin-1-yl)-6-oxo-1,6-dihydropyrazin-2-yl)thio)-2-chlorophenyl)-2-hydroxy-4-oxo-4H-pyrazino[1,2-a]pyrimidine-3-carboxamide] showed an IC50 of no more than 0.05 µM.

As to `CC1(CN)CCN(c2ncc(Sc3cccc(NC(=O)c4c(O)nc5[nH]ccn5c4=O)c3Cl)[nH]c2=O)CC1` [Example 32, N-(3-((5-(4-(aminomethyl)-4-methylpiperidin-1-yl)-6-oxo-1,6-dihydropyrazin-2-yl)thio)-2-chlorophenyl)-7-hydroxy-5-oxo-1,5-dihydroimidazo[1,2-a]pyrimidine-6-carboxamide], the IC50 is no more than 0.05 µM.

In the case of `C[C@@H]1OCC2(CCN(c3ncc(Sc4ccnc(N)c4Cl)nc3O)CC2)[C@@H]1N` [Example 77, 6-((2-amino-3-chloropyridin-4-yl)thio)-3-((3S,4S)-4-amino-3-methyl-2-oxa-8-azaspiro[4.5]decan-8-yl)pyrazin-2(1H)-one], the IC50 was no more than 0.05 µM.

In turn, `N[C@@H]1c2ccccc2NC12CCN(c1ncc(Sc3cccc(Cl)c3Cl)[nH]c1=O)CC2` [Example 132, (R)-3-(3-aminospiro[indoline-2,4′-piperidin]-1′-yl)-6-((2,3-dichlorophenyl)thio)pyrazin-2 (1H)-one] yielded an IC50 of no more than 0.05 µM.

As for `CC1(CN)CCN(c2nc3[nH]nc(Oc4cccc(Cl)c4Cl)c3c(=O)[nH]2)CC1` [Example 35, 6-(4-(aminomethyl)-4-methylpiperidin-1-yl)-3-(2,3-dichlorophenoxy)-1,5-dihydro-4H-pyrazolo[3,4-d]pyrimidin-4-one], the IC50 was no more than 0.05 µM.

On to `N[C@@H]1c2ccccc2OC12CCN(c1ncc(Sc3cccc(Cl)c3Cl)[nH]c1=O)CC2` [Example 87, (R)-3-(3-amino-3H-spiro[benzofuran-2,4′-piperidin]-1′-yl)-6-((2,3-dichlorophenyl)thio)pyrazin-2 (1H)-one], for which the IC50 is no more than 0.05 µM.

As to `C[C@@H]1OCC2(CCN(c3ncc(Sc4ccnc(N)c4F)[nH]c3=O)CC2)[C@@H]1N` [Example 127, 6-((2-amino-3-fluoropyridin-4-yl)thio)-3-((3S,4S)-4-amino-3-methyl-2-oxa-8-azaspiro[4.5]decan-8-yl)pyrazin-2(1H)-one], the concentration for half-maximal inhibition (IC50) was no more than 1 µM.

In turn, `N[C@H]1CCCC12CCN(c1ncc(Sc3ccnc(Cl)c3Cl)[nH]c1=O)CC2` [Example 135, (S)-3-(1-amino-8-azaspiro[4.5]decan-8-yl)-6-((2,3-dichloropyridin-4-yl)thio)pyrazin-2(1H)-one] gave a half-inhibitory concentration (IC50) of no more than 0.05 µM.

Take `CC1(CN)CCN(c2nc3[nH]nc(Nc4cccc(Cl)c4Cl)c3c(=O)[nH]2)CC1` [Example 34, 6-(4-(aminomethyl)-4-methylpiperidin-1-yl)-3-((2,3-dichlorophenyl)amino)-1,5-dihydro-4H-pyrazolo[3,4-d]pyrimidin-4-one]: the IC50 was no more than 0.05 µM.

`C[C@@H]1OCC2(CCN(c3ncc(Sc4cccc(N)c4F)[nH]c3=O)CC2)[C@@H]1N` [Example 126, 6-((3-amino-2-fluorophenyl)thio)-3-((3S,4S)-4-amino-3-methyl-2-oxa-8-azaspiro[4.5]decan-8-yl)pyrazin-2(1H)-one] showed an IC50 of no more than 0.05 µM.

The compound `C[C@@H]1OCC2(CCN(c3ncc(Sc4ccncc4Cl)[nH]c3=O)CC2)[C@@H]1N` [Example 128, 3-((3S,4S)-4-amino-3-methyl-2-oxa-8-azaspiro[4.5]decan-8-yl)-6-((3-chloropyridin-4-yl)thio) pyrazin-2(1H)-one] displayed a 50% inhibitory concentration (IC50) of no more than 0.05 µM.

`Nc1nccc(Sc2cnc(N3CCC4(CC3)Cc3sc(Cl)nc3C4N)c(=O)[nH]2)c1Cl` (stereo not drawn) [Example 117, 3-(4-amino-2-chloro-4,6-dihydrospiro[cyclopenta[d]thiazole-5,4′-piperidin]-1′-yl)-6-((2-amino-3-chloropyridin-4-yl)thio)pyrazin-2(1H)-one] yielded an IC50 of no more than 0.05 µM.

Regarding `NC1c2nc(Cl)sc2CC12CCN(c1ncc(Sc3ccnc(Cl)c3Cl)[nH]c1=O)CC2` (stereo not drawn) [Example 116, 3-(4-amino-2-chloro-4,6-dihydrospiro[cyclopenta[d]thiazole-5,4′-piperidin]-1′-yl)-6-((2,3-dichloropyridin-4-yl)thio)pyrazin-2(1H)-one], the IC50 was no more than 0.05 µM.

Take `NC1CCCC(n2ccc(-c3cccc(Cl)c3Cl)cc2=O)C1` (stereo not drawn) [Example 74, 1-(3-aminocyclohexyl)-4-(2,3-dichlorophenyl)pyridin-2(1H)-one]: the IC50 is no more than 0.05 µM.

For `NC1C2CN(c3ncc(Sc4cccc(Cl)c4Cl)[nH]c3=O)CC12` (stereo not drawn) [Example 86, 3-(6-amino-3-azabicyclo[3.1.0]hexan-3-yl)-6-((2,3-dichlorophenyl)thio)pyrazin-2(1H)-one], the IC50 was no more than 0.05 µM.

`N[C@@H]1c2ccccc2OC12CCN(c1ncc(Sc3ccnc(Cl)c3Cl)[nH]c1=O)CC2` [Example 123, (R)-3-(3-amino-3H-spiro[benzofuran-2,4′-piperidin]-1′-yl)-6-((2,3-dichloropyridin-4-yl)thio)pyrazin-2(1H)-one] registered an IC50 of no more than 0.05 µM.

For the compound `NC1C2CC2CC12CCN(c1ncc(Sc3cccc(Cl)c3Cl)[nH]c1=O)CC2` (stereo not drawn) [Example 13, 3-(2-aminospiro[bicyclo[3.1.0]hexane-3,4′-piperidin]-1′-yl)-6-((2,3-dichlorophenyl)thio)pyrazin-2 (1H)-one], the IC50 was no more than 0.05 µM.

`Nc1nccc(Sc2cnc(N3CCC4(CC3)Cc3scnc3C4N)c(=O)[nH]2)c1Cl` (stereo not drawn) [Example 130, 6-((2-amino-3-chloropyridin-4-yl)thio)-3-(4-amino-4,6-dihydrospiro[cyclopenta[d]thiazole-5,4′-piperidin]-1′-yl)pyrazin-2(1H)-one] showed a half-inhibitory concentration (IC50) of no more than 0.05 µM.

As to `COc1ccc2c(c1)CC1(CCN(c3ncc(Sc4cccc(Cl)c4Cl)[nH]c3=O)CC1)[C@@H]2N` [Example 131, (S)-3-(1-amino-5-methoxy-1,3-dihydrospiro[indene-2,4′-piperidin]-1′-yl)-6-((2,3-dichlorophenyl)thio)pyrazin-2 (1H)-one], the IC50 was no more than 0.05 µM.

Compound `N[C@@H]1c2ccccc2CC12CCN(c1ncc(Sc3cccc(Cl)c3Cl)[nH]c1=O)CC2` [Example 108] gave a half-maximal inhibitory concentration (IC50) of no more than 0.05 µM.

Consider `Nc1nccc(Sc2cnc(N3CCC4(CCC[C@@H]4N)CC3)c(=O)[nH]2)c1Cl` [Example 133, (S)-6-((2-amino-3-chloropyridin-4-yl)thio)-3-(1-amino-8-azaspiro[4.5]decan-8-yl)pyrazin-2(1H)-one], for which the IC50 is no more than 0.05 µM.

In the case of `C[C@@H]1OCC2(CCN(c3ncc(Sc4cc[nH]c(=O)c4Cl)[nH]c3=O)CC2)[C@@H]1N` [Example 107, 3-((3S,4S)-4-amino-3-methyl-2-oxa-8-azaspiro[4.5]decan-8-yl)-6-((3-chloro-2-oxo-1,2-dihydro-pyridin-4-yl)thio)pyrazin-2(1H)-one], the IC50 is no more than 0.05 µM.

On to `CN1C(=O)C(C(=O)Nc2cccc(Sc3cnc(N4CCC(C)(CN)CC4)c(=O)[nH]3)c2Cl)=C(O)C1(C)C` [Example 28, N-(3-((5-(4-(aminomethyl)-4-methylpiperidin-1-yl)-6-oxo-1,6-dihydropyrazin-2-yl)thio)-2-chlorophenyl)-4-hydroxy-1,5,5-trimethyl-2-oxo-2,5-dihydro-1H-pyrrole-3-carboxamide], for which the IC50 is no more than 0.05 µM.

For `COc1nccc(Sc2cnc(N3CCC4(CC3)CO[C@@H](C)[C@H]4N)c(=O)[nH]2)c1Cl` [Example 80, 3-((3S,4S)-4-amino-3-methyl-2-oxa-8-azaspiro[4.5]decan-8-yl)-6-((3-chloro-2-methoxypyridin-4-yl)thio)pyrazin-2(1H)-one], the IC50 was no more than 0.05 µM.

`[2H][C@@]1(N)[C@H](C)OCC12CCN(c1ncc(Sc3cccc(Cl)c3Cl)[nH]c1=O)CC2` [Example 136] came in with a half-maximal inhibitory concentration (IC50) of no more than 0.05 µM.

`Nc1nccc(Sc2cnc(N3CCC4(CC3)Oc3ccccc3[C@H]4N)c(=O)[nH]2)c1Cl` [Example 124, (R)-6-((2-amino-3-chloropyridin-4-yl)thio)-3-(3-amino-3H-spiro[benzofuran-2,4′-piperidin]-1′-yl)pyrazin-2(1H)-one] gave an IC50 of no more than 0.05 µM.
